Experimental data as given in ChEMBL document CHEMBL1148944, “Iridoid glucosides and p-coumaroyl iridoids from Viburnum luzonicum and their cytotoxicity” (J Nat Prod, 2004).

Experiment: Cytotoxicity against human HeLaS3 cells by WST1 assay
Format: functional, cell-based
Settings: HeLa S3

Row | Structure (SMILES) | IC50 [µM]
1 | CCC(C)CC(=O)O[C@@H]1OC=C(CO)[C@H]2C[C@H](OC(=O)/C=C/c3ccc(O)cc3)[C@](O)(CO)[C@@H]12 (stereo not given in full) [1-O-DEISOVAEROYL-1-O-3-METHYLVALEROYL-LUZONOID A] | 7.4
2 | O=c1[nH]cc(F)c(=O)[nH]1 [FLUOROURACIL] | 5.4
3 | CC(C)CC(=O)O[C@@H]1OC=C(CO)[C@H]2C[C@H](OC(=O)/C=C/c3ccc(O)cc3)[C@](O)(CO)[C@@H]12 [LUZONOID A] | 2.89
4 | CC(C)CC(=O)O[C@@H]1OC=C(CO)[C@H]2C[C@H](OC(=O)/C=C\c3ccc(O)cc3)[C@](O)(CO)[C@@H]12 [LUZONOID B] | 3.11
5 | CC(C)CC(=O)O[C@@H]1OC=C(CO)[C@H]2C[C@H](O)[C@](O)(COC(=O)/C=C/c3ccc(O)cc3)[C@@H]12 [LUZONOID C] | 3.57
6 | CC(C)CC(=O)O[C@@H]1OC=C(CO)[C@H]2C[C@H](O)[C@](O)(COC(=O)/C=C\c3ccc(O)cc3)[C@@H]12 [LUZONOID D] | 4.56
7 | CC(C)CC(=O)O[C@@H]1OC=C(CO[C@@H]2O[C@H](CO)[C@@H](O)[C@H](O)[C@H]2O)[C@H]2C[C@H](OC(=O)/C=C/c3ccc(O)cc3)[C@](O)(CO)[C@@H]12 [LUZONOSIDE A] | 3.39
8 | CC(C)CC(=O)O[C@@H]1OC=C(CO[C@@H]2O[C@H](CO)[C@@H](O)[C@H](O)[C@H]2O)[C@H]2C[C@H](OC(=O)/C=C\c3ccc(O)cc3)[C@](O)(CO)[C@@H]12 [LUZONOSIDE B] | 4.67
9 | COC(=O)C1=CO[C@@H](O[C@@H]2O[C@H](CO)[C@@H](O)[C@H](O)[C@H]2O)[C@@H]2[C@@H](COC(=O)/C=C/c3ccc(O)cc3)CC[C@H]12 [LUZONOSIDE C] | 100
10 | COC(=O)C1=CO[C@@H](O[C@@H]2O[C@H](CO)[C@@H](O)[C@H](O)[C@H]2O)[C@@H]2[C@@H](COC(=O)/C=C\c3ccc(O)cc3)CC[C@H]12 [LUZONOSIDE D] | 100
